This note sets out measurements from PMC10589713 (Proceedings of the National Academy of Sciences of the …, 2023).

“And” between values parts separate entries of the source, which are not always exact repeats. Equal values may be shown once. A value given as a limit tells only on which side of the number the result lay.

Data set [1] has as its system IAV H5N1. Briefly: microbe, parasite or virus in culture. Format: cell-based. Particulars: Influenza A virus, H5N1, A549.
In data set [2] the test system is LACV. Put plainly: organism not typed. The class given is cell-based. Particulars: MDBK.
Data set [3] deals with CHIKV. Put plainly: microbe, parasite or virus in culture. As to conditions: Chikungunya virus, BHK-21. The class given is cell-based.
In data set [4] the test system is DENV2. Briefly: microbe, parasite or virus in culture. The class given is cell-based. Particulars: Dengue virus, DENV2, BHK-21, 96 h.
The subject of data set [5] is rgDENV2 Wild type. Briefly: microbe, parasite or virus in culture. Particulars: Dengue virus, BHK-21, 96 h. The class given is cell-based.
In data set [6] the test system is V79 cells.
In data set [7] the test system is DENV2 AG-P10. Set-up: species or system AG129 mice. Particulars: mouse, in vivo.
Data set [8] deals with MERS-CoV. Briefly: microbe, parasite or virus in culture. As to conditions: Middle East respiratory syndrome-related coronavirus, VeroE6/TMPRSS2. The class given is cell-based.
Data set [9] has as its system LPHV. Put plainly: microbe, parasite or virus in culture. Format: cell-based. Particulars: Leopards Hill virus.
The conditions of data set [10]: mouse, in vivo.
For data set [11], the system named is LCMV. Briefly: microbe, parasite or virus in culture. Format: cell-based. Particulars: Mammarenavirus choriomeningitidis.
Data set [12] has as its system SARS-CoV-2. Put plainly: microbe, parasite or virus in culture. As to conditions: Severe acute respiratory syndrome coronavirus 2, VeroE6/TMPRSS2. The class given is cell-based.
Data set [13] deals with rgDENV2 NS5-G605V. Format: cell-based, dengue virus.
The subject of data set [14] is YFV. Put plainly: microbe, parasite or virus in culture. The class given is cell-based. As to conditions: Yellow fever virus, BHK-21, 72 h.
Data set [15] deals with ZIKV. Put plainly: microbe, parasite or virus in culture. Particulars: Zika virus, BHK-21, 72 h. Format: cell-based.
The subject of data set [16] is DENV2. Briefly: microbe, parasite or virus in culture. As to conditions: Dengue virus, DENV2, Huh-7. The class given is cell-based.
In data set [17] the test system is IAV H7N9. Briefly: microbe, parasite or virus in culture. The class given is cell-based. Particulars: Influenza A virus, H7N9, MA104.
The subject of data set [18] is RVFV. Briefly: microbe, parasite or virus in culture. Format: cell-based. As to conditions: Rift Valley fever virus, MDCK.
Data set [19] has as its system JUNV. Put plainly: microbe, parasite or virus in culture. The class given is cell-based. Particulars: Mammarenavirus juninense, HEK-293T.
Data set [20] concerns SFTSV. Put plainly: microbe, parasite or virus in culture. Format: cell-based. Particulars: Severe fever with thrombocytopenia syndrome virus, MDCK.
In data set [21] the target is ZIKV NS5 (RdRp) (Zika virus, UniProt A0A024B7W1). Format: biochemical.
ZIKV NS5 (RdRp), sequence (A0A024B7W1 2521-3423 limits assumed): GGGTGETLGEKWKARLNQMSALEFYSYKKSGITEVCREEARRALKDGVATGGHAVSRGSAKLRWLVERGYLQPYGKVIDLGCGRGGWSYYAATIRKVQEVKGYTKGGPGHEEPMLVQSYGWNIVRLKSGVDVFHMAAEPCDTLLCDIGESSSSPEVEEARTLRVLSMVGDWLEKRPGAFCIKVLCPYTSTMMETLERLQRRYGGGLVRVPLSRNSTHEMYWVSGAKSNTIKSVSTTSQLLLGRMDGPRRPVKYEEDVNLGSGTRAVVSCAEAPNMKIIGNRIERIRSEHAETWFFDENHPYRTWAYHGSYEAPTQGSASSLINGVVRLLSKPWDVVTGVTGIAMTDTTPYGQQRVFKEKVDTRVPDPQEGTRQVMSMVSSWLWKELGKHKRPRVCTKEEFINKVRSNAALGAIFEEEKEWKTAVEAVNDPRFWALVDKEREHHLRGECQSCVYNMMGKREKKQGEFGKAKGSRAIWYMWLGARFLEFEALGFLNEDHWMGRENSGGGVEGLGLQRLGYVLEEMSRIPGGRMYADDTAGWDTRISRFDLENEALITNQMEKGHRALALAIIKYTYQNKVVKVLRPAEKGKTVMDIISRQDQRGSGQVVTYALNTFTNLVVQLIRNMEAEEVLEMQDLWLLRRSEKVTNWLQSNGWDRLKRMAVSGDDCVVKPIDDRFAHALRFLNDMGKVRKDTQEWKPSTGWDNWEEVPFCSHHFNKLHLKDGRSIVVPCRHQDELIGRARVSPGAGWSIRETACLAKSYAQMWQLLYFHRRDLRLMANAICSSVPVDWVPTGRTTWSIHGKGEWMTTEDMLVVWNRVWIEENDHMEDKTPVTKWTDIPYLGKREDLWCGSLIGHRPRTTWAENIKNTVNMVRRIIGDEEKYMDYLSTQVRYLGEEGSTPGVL

For orientation: EC50 means the concentration that produces a half-maximal response. A lower EC50 goes with a more potent agent. What is called EC90 is the point of the concentration-response curve where the effect stands at 90%. Low values mean greater potency, high ones weaker potency. For `O=c1ccn([C@@H]2O[C@H](CO)[C@@H](O)[C@H]2O)c(=S)[nH]1` [s2U, 2-thiouridine], the half-maximal effective concentration (EC50) in [1] was > 100 µM; in data set [2], > 100 µM; in [3] it was 3.8 ± 0.12 µM; in data set [4], 1.5 ± 0.1 µM; in data set [5] it was 0.86 ± 0.12 µM; in data set [8] it was 2.3 µM. In addition, the half-maximal effective concentration (EC50) in [9] is > 100 µM; in data set [11], > 100 µM; in data set [12], 2.3 ± 0.43 µM; in [13], 5.1 ± 0.69 µM; in data set [14], 3.2 ± 1.4 µM; in data set [15] it was 3.8 ± 0.96 µM. Further, the EC50 in data set [16] was < 0.63 µM; in [17] it was > 100 µM; in data set [18], > 100 µM; in [19], > 100 µM; in data set [20] it was > 100 µM. Further, the “mutagenicity, HPRT (in vitro gene mutation test)” value in [6] is “does not have sufficient ability to introduce mutations”. In [7], the median survival was 12.5 days and > 16 days and 12 days and 13 days. Also, in data set [10], the body weight change entry was “no BW loss”. In addition, the 90% effect concentration (EC90) in data set [16] stood at 3.4 µM.

For `NC(=O)c1nc(F)c[nH]c1=O` [Favipiravir], the Fold change in data set [13] is on record as 2.2.

For `O=c1ccn([C@@H]2O[C@H](COP(=O)(O)OP(=O)(O)OP(=O)(O)O)[C@@H](O)[C@H]2O)c(=S)[nH]1` [s2UTP, s2U 5′-triphosphate], in [21], the “RNA extension catalyzed by ZIKV RdRp” value is recorded as “inhibited RNA extension”.

Take `NC(=O)c1ncn([C@@H]2O[C@H](CO)[C@@H](O)[C@H]2O)n1` [Ribavirin]: the Fold change in [13] worked out at 2.3.
